≈ marks a conversion by molar mass, not a printed value.
Assays:
human DHFR = target: T1, human DHFR (Homo sapiens, UniProt P00374); assay: biochemical
T1 sequence (P00374 1-187): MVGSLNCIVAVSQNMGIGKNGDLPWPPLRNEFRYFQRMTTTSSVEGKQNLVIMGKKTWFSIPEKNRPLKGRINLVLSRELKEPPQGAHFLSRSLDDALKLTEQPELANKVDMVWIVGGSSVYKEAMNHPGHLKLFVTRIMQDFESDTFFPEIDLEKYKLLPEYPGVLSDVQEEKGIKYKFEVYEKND

[1] = tested on: Bacillus anthracis Sterne; assay: microbe, parasite or virus in culture; assay type: cell-based; settings: 16 h, read-out: MIC B. anthracis (ug/ml)
Bacillus anthracis DHFR = Bacillus anthracis DHFR (Bacillus anthracis, UniProt Q81R22); assay: biochemical
Sequence of Bacillus anthracis DHFR (Q81R22 1-162): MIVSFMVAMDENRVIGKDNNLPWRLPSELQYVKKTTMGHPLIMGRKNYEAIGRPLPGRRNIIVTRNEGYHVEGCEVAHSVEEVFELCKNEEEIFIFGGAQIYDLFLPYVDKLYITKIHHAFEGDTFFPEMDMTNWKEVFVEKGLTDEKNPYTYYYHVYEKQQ

**Q.** For `COc1cc(Cc2cnc(N)nc2N)cc(/C=C/C(=O)N2N=Cc3ccccc3C2C2CCCC2)c1OC` (stereo not shown), which IC50 (human DHFR) is on record?
**A.** Its IC50 is > 21000 nM.

**Q.** What about the MIC [1] of the same compound?
**A.** The MIC was ≤ 26 µg/mL.

**Q.** And the IC50 (Bacillus anthracis DHFR)?
**A.** The IC50 was 200 nM.

**Q.** Which MIC [1] does the source give for `COc1cc(Cc2cnc(N)nc2N)cc(OC)c1OC` [Trimethoprim, reference compound] here?
**A.** The MIC was > 2000 µg/mL.

**Q.** Which results are given for `CCCCC1c2ccccc2C=NN1C(=O)/C=C/c1cc(Cc2cnc(N)nc2N)cc(OC)c1OC` (stereo not shown)?
**A.** MIC [1]: ≤ 13 µg/mL; IC50 (Bacillus anthracis DHFR): 170 nM

**Q.** Which results are given for `COc1cc(Cc2cnc(N)nc2N)cc(/C=C/C(=O)N2N=Cc3ccccc3C2c2ccccc2)c1OCCN1CCOCC1` (stereo not shown)?
**A.** IC50 (human DHFR): > 16000 nM; MIC [1]: ≤ 32 µg/mL; IC50 (Bacillus anthracis DHFR): 170 nM

**Q.** With `COc1cc(Cc2cnc(N)nc2N)cc(/C=C/C(=O)N2N=Cc3ccccc3C2C2CCCCC2)c1OC` (stereo not shown) as the compound, how does the MIC [1] read?
**A.** The MIC was ≤ 13 µg/mL.

**Q.** And the IC50 (Bacillus anthracis DHFR)?
**A.** Its IC50 is 260 nM.

**Q.** Which results are given for `COc1cc(Cc2cnc(N)nc2N)cc(/C=C/C(=O)N2N=Cc3ccccc3C2c2ccccc2)c1OC.CS(=O)(=O)O` (stereo not shown)?
**A.** MIC [1]: 26 µg/mL; IC50 (Bacillus anthracis DHFR): 46 nM

**Q.** Which IC50 (human DHFR) does the source give for `CCCC1c2ccccc2C=NN1C(=O)/C=C/c1cc(Cc2cnc(N)nc2N)cc(OC)c1OC` (stereo not shown) here?
**A.** The IC50 was 110000 nM.

**Q.** What about the MIC [1] of the same compound?
**A.** The MIC was 13 µg/mL (≈ 26.7 µM).

**Q.** And the IC50 (Bacillus anthracis DHFR)?
**A.** The IC50 was 54 nM.

From patent US8268825B2 (priority 2005, dated 2012)
